Data reported in patent US7939517B2, “1,4,6-androstatriene-3,17-dione (“ATD”) for therapeutic uses” (priority 2004, dated 2011).

How the values were obtained:
aromatase enzyme [1] = molecular target: T1, aromatase enzyme (Homo sapiens, UniProt P11511); assay: aromatase enzyme inhibition (Ki); type: biochemical
T1 sequence (P11511 1-503): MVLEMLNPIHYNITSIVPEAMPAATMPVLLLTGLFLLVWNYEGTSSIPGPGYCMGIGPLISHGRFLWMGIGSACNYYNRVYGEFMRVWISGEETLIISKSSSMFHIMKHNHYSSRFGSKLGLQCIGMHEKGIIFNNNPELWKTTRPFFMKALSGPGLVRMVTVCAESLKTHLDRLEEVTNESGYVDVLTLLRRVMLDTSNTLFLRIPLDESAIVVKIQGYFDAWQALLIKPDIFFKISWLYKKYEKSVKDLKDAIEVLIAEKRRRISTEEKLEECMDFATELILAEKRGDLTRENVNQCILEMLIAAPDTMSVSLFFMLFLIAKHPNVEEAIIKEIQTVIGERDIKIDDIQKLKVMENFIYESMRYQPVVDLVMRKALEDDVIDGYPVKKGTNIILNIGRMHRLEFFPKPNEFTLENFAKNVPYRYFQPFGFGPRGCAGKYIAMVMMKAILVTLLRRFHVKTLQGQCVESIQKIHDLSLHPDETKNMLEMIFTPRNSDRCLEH
Method: ATD acts as a suicide substrate by irreversibly binding to the aromatase enzyme and shutting down its activity. Because it is a non-androgenic compound, ATD has fewer side effects associated with anabolic/androgenic steroid use. […] A lower Ki value means the inhibitor binds more tightly to the enzyme and yields greater potency. […] Because it is administered in smaller doses, costs of use of ATD may also be lower. The savings may be passed on to the consumer and/or provide greater profits to the manufacturer. Additionally, with oral or percutaneous/transdermal doses of 25 mg to 150 mg per day in men, ATD will cause a significant increase in endogenous androgen levels with little or no decrease in endogenous estrogen.

aromatase enzyme [2] = molecular target: T1, aromatase enzyme; details: inhibitor binding to the aromatase enzyme; from "recent studies"; cited from earlier work

SMILES | ratio of the Ki values (AT concentration relative to ATD for the same effect) (aromatase enzyme [1]) [times] | Ki (aromatase enzyme [2]) [nM]
C[C@]12C=CC(=O)C=C1C=C[C@@H]1[C@@H]2CC[C@]2(C)C(=O)CC[C@@H]12 [ATD, 1,4,6-androstatriene-3,17-dione] | 2.39 | –
C[C@]12CCC(=O)C=C1C(=O)C[C@@H]1[C@@H]2CC[C@]2(C)C(=O)CC[C@@H]12 [AT, androst-4-ene-3,6,17-trione] | – | 430
